# Assay results as given in PubChem BioAssay (NCI).
#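 These data come from cells grown in 96-well plates and exposed to compound for 48 hours at five concentrations. Here, GI50 denotes the concentration required for 50% inhibition of growth. The concentration for full growth arrest is given as TGI.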
# How the values were obtained:
# Experiment in all cases: NCI anticancer screen, dose series, 48 h
# A498 renal = system: A498 renal
# RPMI-8226 leukemia = system: RPMI-8226 leukemia
# NCI-H23 lung = system: NCI-H23 lung
# MALME-3M melanoma = system: MALME-3M melanoma
# OVCAR-4 ovarian = system: OVCAR-4 ovarian
# 786-0 renal = system: 786-0 renal
# MCF7 breast = system: MCF7 breast
# NCI/ADR-RES ovarian = system: NCI/ADR-RES ovarian
# SF-268 CNS = system: SF-268 CNS
# EKVX NSCLC = system: EKVX NSCLC
# TK-10 renal = system: TK-10 renal
# A549 NSCLC = system: A549 NSCLC
# RXF 393 renal = system: RXF 393 renal
# ACHN renal = system: ACHN renal
# IGROV1 ovarian = system: IGROV1 ovarian
# UO-31 renal = system: UO-31 renal
# CCRF-CEM leukemia = system: CCRF-CEM leukemia
# HCT-116 colon = system: HCT-116 colon
# NCI-H226 lung = system: NCI-H226 lung
# M14 melanoma = system: M14 melanoma
# HOP-92 NSCLC = system: HOP-92 NSCLC
# NCI-H460 lung = system: NCI-H460 lung
# SW-620 colon = system: SW-620 colon
# HT29 colon = system: HT29 colon
# LOX IMVI melanoma = system: LOX IMVI melanoma
# SN12C renal = system: SN12C renal
# UACC-62 melanoma = system: UACC-62 melanoma
# OVCAR-3 ovarian = system: OVCAR-3 ovarian
# SK-OV-3 ovarian = system: SK-OV-3 ovarian
# OVCAR-8 ovarian = system: OVCAR-8 ovarian
# SNB-19 CNS = system: SNB-19 CNS
# DU-145 prostate = system: DU-145 prostate
# SK-MEL-28 melanoma = system: SK-MEL-28 melanoma
# SF-539 CNS = system: SF-539 CNS
# HCC-2998 colon = system: HCC-2998 colon
# NCI-H522 lung = system: NCI-H522 lung
# U251 CNS = system: U251 CNS
# SNB-75 CNS = system: SNB-75 CNS
# SK-MEL-2 melanoma = system: SK-MEL-2 melanoma
# MDA-MB-231 breast = system: MDA-MB-231 breast
# T-47D breast = system: T-47D breast
# OVCAR-5 ovarian = system: OVCAR-5 ovarian
# SK-MEL-5 melanoma = system: SK-MEL-5 melanoma
# SF-295 CNS = system: SF-295 CNS
# COLO 205 colon = system: COLO 205 colon
# BT-549 breast = system: BT-549 breast
# KM12 colon = system: KM12 colon
# UACC-257 melanoma = system: UACC-257 melanoma
# HCT-15 colon = system: HCT-15 colon
# HOP-62 NSCLC = system: HOP-62 NSCLC
# CAKI-1 renal = system: CAKI-1 renal
# MDA-MB-435 = system: MDA-MB-435
# MOLT-4 leukemia = system: MOLT-4 leukemia
# SR leukemia = system: SR leukemia
# K-562 leukemia = system: K-562 leukemia
# PC-3 prostate = system: PC-3 prostate
smiles,measurement,setting,value
C=CC1CN2CCC1CC2C(O)c1ccnc2ccc(OC)cc12 (stereo not drawn),GI50,A498 renal,> 100 µM
same,TGI,A498 renal,> 100 µM
same,GI50,RPMI-8226 leukemia,53 µM
same,TGI,RPMI-8226 leukemia,> 100 µM
same,GI50,NCI-H23 lung,> 100 µM
same,TGI,NCI-H23 lung,> 100 µM
same,GI50,MALME-3M melanoma,> 100 µM
same,TGI,MALME-3M melanoma,> 100 µM
COCCCC(NC(=O)C(CC(C)C)NC(=O)OCc1ccc(OC)cc1)C(N)=O (stereo not drawn),GI50,OVCAR-4 ovarian,47.2 µg/mL
Cc1cc(C(=C2C=CC(=Nc3ccccc3)C=C2)c2ccc(Nc3ccccc3)cc2)ccc1N,GI50,786-0 renal,0.259 µM
same,TGI,786-0 renal,0.709 µM
same,GI50,MCF7 breast,0.346 µM
same,TGI,MCF7 breast,1.37 µM
same,GI50,NCI/ADR-RES ovarian,0.643 µM
same,TGI,NCI/ADR-RES ovarian,2.22 µM
same,GI50,SF-268 CNS,0.651 µM
same,TGI,SF-268 CNS,1.83 µM
same,GI50,EKVX NSCLC,0.334 µM
same,TGI,EKVX NSCLC,1.26 µM
same,GI50,TK-10 renal,0.359 µM
same,TGI,TK-10 renal,1.11 µM
same,GI50,A549 NSCLC,0.599 µM
same,TGI,A549 NSCLC,1.69 µM
same,GI50,RXF 393 renal,0.344 µM
same,TGI,RXF 393 renal,1.28 µM
same,GI50,ACHN renal,0.377 µM
same,TGI,ACHN renal,1.31 µM
same,GI50,IGROV1 ovarian,0.389 µM
same,TGI,IGROV1 ovarian,1.34 µM
same,GI50,A498 renal,0.543 µM
same,TGI,A498 renal,1.86 µM
same,GI50,UO-31 renal,0.305 µM
same,TGI,UO-31 renal,1.38 µM
same,GI50,CCRF-CEM leukemia,0.352 µM
same,TGI,CCRF-CEM leukemia,> 100 µM
same,GI50,HCT-116 colon,0.287 µM
same,TGI,HCT-116 colon,1.02 µM
same,GI50,NCI-H226 lung,0.446 µM
same,TGI,NCI-H226 lung,1.72 µM
same,GI50,M14 melanoma,0.286 µM
same,TGI,M14 melanoma,1.04 µM
same,GI50,HOP-92 NSCLC,0.475 µM
same,TGI,HOP-92 NSCLC,1.73 µM
same,GI50,NCI-H460 lung,0.223 µM
same,TGI,NCI-H460 lung,0.532 µM
same,GI50,SW-620 colon,0.29 µM
same,TGI,SW-620 colon,1.05 µM
same,GI50,HT29 colon,0.164 µM
same,TGI,HT29 colon,0.302 µM
same,GI50,LOX IMVI melanoma,0.169 µM
same,TGI,LOX IMVI melanoma,0.31 µM
same,GI50,SN12C renal,0.31 µM
same,TGI,SN12C renal,1.48 µM
same,GI50,UACC-62 melanoma,0.25 µM
same,TGI,UACC-62 melanoma,0.796 µM
same,GI50,OVCAR-3 ovarian,0.293 µM
same,TGI,OVCAR-3 ovarian,0.876 µM
same,GI50,SK-OV-3 ovarian,1.52 µM
same,TGI,SK-OV-3 ovarian,2.9 µM
same,GI50,OVCAR-8 ovarian,0.254 µM
same,TGI,OVCAR-8 ovarian,0.913 µM
same,GI50,SNB-19 CNS,0.397 µM
same,TGI,SNB-19 CNS,1.56 µM
same,GI50,DU-145 prostate,0.507 µM
same,TGI,DU-145 prostate,1.58 µM
same,GI50,SK-MEL-28 melanoma,0.368 µM
same,TGI,SK-MEL-28 melanoma,1.4 µM
same,GI50,SF-539 CNS,0.328 µM
same,TGI,SF-539 CNS,1.16 µM
same,GI50,HCC-2998 colon,0.211 µM
same,TGI,HCC-2998 colon,0.452 µM
same,GI50,NCI-H522 lung,0.203 µM
same,TGI,NCI-H522 lung,0.602 µM
same,GI50,U251 CNS,0.185 µM
same,TGI,U251 CNS,0.39 µM
same,GI50,NCI-H23 lung,0.382 µM
same,TGI,NCI-H23 lung,1.69 µM
same,GI50,SNB-75 CNS,0.598 µM
same,TGI,SNB-75 CNS,2.22 µM
same,GI50,SK-MEL-2 melanoma,0.216 µM
same,TGI,SK-MEL-2 melanoma,0.529 µM
same,GI50,OVCAR-4 ovarian,0.355 µM
same,TGI,OVCAR-4 ovarian,1.31 µM
same,GI50,MDA-MB-231 breast,0.363 µM
same,TGI,MDA-MB-231 breast,1.34 µM
same,GI50,T-47D breast,0.527 µM
same,TGI,T-47D breast,1.93 µM
same,GI50,OVCAR-5 ovarian,0.245 µM
same,TGI,OVCAR-5 ovarian,0.671 µM
same,GI50,SK-MEL-5 melanoma,0.253 µM
same,TGI,SK-MEL-5 melanoma,0.718 µM
same,GI50,SF-295 CNS,0.385 µM
same,TGI,SF-295 CNS,1.35 µM
same,GI50,COLO 205 colon,0.201 µM
same,TGI,COLO 205 colon,0.407 µM
same,GI50,BT-549 breast,1.06 µM
same,TGI,BT-549 breast,2.26 µM
same,GI50,KM12 colon,0.312 µM
same,TGI,KM12 colon,1.05 µM
same,GI50,MALME-3M melanoma,0.25 µM
same,TGI,MALME-3M melanoma,0.777 µM
same,GI50,UACC-257 melanoma,0.286 µM
same,TGI,UACC-257 melanoma,1.04 µM
COc1cc2c(cc1OCCCCN1C(=O)c3cccc4cccc(c34)C1=O)N=C[C@@H]1CCCN1C2=O,TGI,786-0 renal,9.73 µM
same,TGI,MCF7 breast,22.4 µM
same,TGI,NCI/ADR-RES ovarian,28.4 µM
same,TGI,SF-268 CNS,> 100 µM
same,TGI,EKVX NSCLC,44.6 µM
same,TGI,TK-10 renal,6.91 µM
same,TGI,A549 NSCLC,> 53.4 µM
same,TGI,HCT-15 colon,14.8 µM
same,TGI,RXF 393 renal,3.63 µM
same,TGI,HOP-62 NSCLC,33.6 µM
same,TGI,ACHN renal,5.2 µM
same,TGI,IGROV1 ovarian,6.01 µM
same,TGI,A498 renal,13.9 µM
same,TGI,UO-31 renal,3.4 µM
same,TGI,CCRF-CEM leukemia,5.08 µM
same,TGI,HCT-116 colon,14 µM
same,TGI,NCI-H226 lung,23.5 µM
same,TGI,M14 melanoma,> 34.3 µM
same,TGI,HOP-92 NSCLC,> 45.8 µM
same,TGI,NCI-H460 lung,14.4 µM
same,TGI,SW-620 colon,> 38.8 µM
same,TGI,CAKI-1 renal,10.1 µM
same,TGI,HT29 colon,18.8 µM
same,TGI,LOX IMVI melanoma,> 100 µM
same,TGI,MDA-MB-435,> 35.6 µM
same,TGI,SN12C renal,17.7 µM
same,TGI,UACC-62 melanoma,39.9 µM
same,TGI,OVCAR-3 ovarian,10.4 µM
same,TGI,SK-OV-3 ovarian,> 74 µM
same,TGI,OVCAR-8 ovarian,82.8 µM
same,TGI,SNB-19 CNS,> 52.3 µM
same,TGI,DU-145 prostate,14.3 µM
same,TGI,SK-MEL-28 melanoma,38.2 µM
same,TGI,SF-539 CNS,7.1 µM
same,TGI,HCC-2998 colon,20.5 µM
same,TGI,MOLT-4 leukemia,> 100 µM
same,TGI,NCI-H522 lung,4.59 µM
same,TGI,SR leukemia,> 100 µM
same,TGI,K-562 leukemia,> 100 µM
same,TGI,U251 CNS,> 33.9 µM
same,TGI,RPMI-8226 leukemia,27.4 µM
same,TGI,PC-3 prostate,> 70.3 µM
same,TGI,NCI-H23 lung,11.5 µM
same,TGI,SK-MEL-2 melanoma,17.9 µM
same,TGI,OVCAR-4 ovarian,18.3 µM
same,TGI,MDA-MB-231 breast,29.4 µM
same,TGI,T-47D breast,37.1 µM
same,TGI,OVCAR-5 ovarian,> 100 µM
same,TGI,SK-MEL-5 melanoma,4.42 µM
same,TGI,SF-295 CNS,45.8 µM
same,TGI,COLO 205 colon,8.21 µM
same,TGI,BT-549 breast,28.7 µM
same,TGI,KM12 colon,13.2 µM
same,TGI,MALME-3M melanoma,16.1 µM
same,TGI,UACC-257 melanoma,37.7 µM
